Test [1] addresses HCV RNA motif 5′CUG3′/3′G_C5′ (SL II). As to the kind of experiment: In solution, fluorescence-based binding affinity assay, HCV RNA motifs. Also on record: species or system Hepatitis C virus. The source says:
(§1) The compounds bind their cognate loops in the 3′ UTR with mid-nanomolar to low micromolar affinities (Table 1). It was next determined if the identified compounds could inhibit HCV RNA replication in HCV subgenomic replicon cells, in particular SGR-Neo-RLuc-JFH1-2A replicon cells established in Huh-7.5 (human hepatoma cells). In this system, an autonomously replicating viral RNA replicon is used to monitor efficiently RNA replication of the virus in the absence of spread of viral RNA to adjacent cells. This is achieved by replacing the structural proteins required to assembly progeny virions with a drug selectable marker (Neo) and a Renilla luciferase (RLuc) reporter gene. Once this replicon has been delivered to human hepatoma cells and selection with G418 (conferred by Neo selectable marker) has occurred, the expression and Renilla luciferase activity is directly correlated with the level of HCV replication^57.
(§2) where n1 is the size of Population 1 (number of sequencing reads for a given RNA from RNA-seq analysis of the selected library), n2 is the size of Population 2 (number of sequencing reads for the same RNA from RNA-seq analysis of the starting library), p1 is the observed proportion of Population 1 (the number of reads for a given RNA from selected library/total number of reads), and p2 is the observed proportion for Population 2 (the number of reads for the same RNA in the starting library/total number of reads). Generation of Logos and DiffLogos: Zobs corresponding to the highest (enriched) 0.5% and lowest (discriminated against) 0.5% scores were analyzed to generate consensus sequences, or Logos. The resulting list of sequences were converted to position weight matrix (PWM) lists for each compound. “Enriched” and “discriminated” sequences were kept separate using JMP®, Version <13.2.1>. SAS Institute Inc., Cary, N.C., 1989-2007. The R package Difflogo,^16 which is part of Bioconductor, was utilized to create the sequence logos from PWM lists for each compound and visually compare the differences between them. Binding Affinity Measurements. Dissociation constants were determined using an in solution, fluorescence-based assay. […] Serial dilutions (1:2) of the small molecule were then completed in 1× Assay Buffer supplemented with 1 mM MgCl2. The solutions were incubated for 30 min at room temperature, transferred to a 96-well plate, and fluorescence intensity measured on a BioTek-FLx800 plate reader. The change in fluorescence intensity as a function of small molecule concentration was fit to a one site binding model per equation 3: […]
(§3) Effect of compounds on HCV replication. […] Cytotoxicity assays. […] Oligonucleotide profiling of target engagement in vitro. […] Primers can be found in Table 4. […] Inhibition of kinases. […] . Figure S7C).

Test [2] has as its target HCV RNA motif 5′GUG3′/3′C_C5′ (SL I and SL III). The description is as above. Also on record: species or system Hepatitis C virus.
From the text: as §1, §2, §3

Test [3] concerns the target HCV RNA motif 5′UAG3′/3′A_C5′ (SL I). Described as above. Also on record: species or system Hepatitis C virus.
From the text: as §1, §2, §3

Test [4] has as its system RNA library C (3×2 nucleotide asymmetric internal loops). The experiment in a line: 2DCS selection with RNA-seq and HiT-StARTS analysis (Zobs, Fitness Score). Type of test: binding. Further details: key to Fitness Score: Zobs normalized so most significant interaction = 100. The source says: Identification of RNA-binding Small Molecules by 2DCS. […] We have previously validated the secondary structures formed by members of RNA libraries by enzymatic mapping^8, 12, 34. These discrete RNA motifs were selected because they are present in cellular RNAs. Due to the library-versus-library nature of these studies, they represent the largest screens completed to date, probing >52,000,000 interactions. Of the 1,987 compounds probed, 239 bound RNA (12.0%).
A final screen was then completed in which the 91 array-immobilized compounds were incubated with all five RNA motif libraries separately in the presence of oligonucleotide competitors F-J, d(AT)11 and d(GC)11. Oligonucleotides F-J mimic regions common to all library members, restricting binding to the randomized regions. (Note: oligonucleotide J was not used for hairpin selections.) After rigorous washing to remove unbound RNAs, bound RNAs were harvested and identified by RNA-seq. By completing selections under conditions of high oligonucleotides stringency (by use of excess competitor oligonucleotides), these studies identified small molecules that bound RNA motifs avidly. A challenge in the small molecule RNA-targeting area has been the development and identification of selective interactions between small molecules and RNAs. In myriad studies, 2DCS has defined selective RNA motif-small molecule interactions with varied affinities^11, 12, 35, 36.
Identification of Privileged RNA Space by RNA-Seq. Using RNA-seq, a large sequencing dataset was obtained for each pool of RNAs that were specifically bound to each small molecule. RNA libraries A, B, C, D, and E had at least 12.1-fold (average: 133.1±111.8), 6.7-fold (average: 80.8±78.7), 9.9-fold (average: 103.5±110.6), 7.2-fold (average: 75.7±65.6), and 6.0-fold (average: 36.3±31.6) coverage for each small molecule selection, respectively, as compared to the number of unique sequences within the corresponding RNA library. It was previously shown that at least 6-fold coverage is required to generate binding landscape maps^12. RNA-seq data were then analyzed by High Throughput Structure-Activity Relationships Through Sequencing (HiT-StARTS)^12 to identify the privileged RNA motifs that bind each small molecule. Briefly, the frequency of occurrence of a selected RNA was compared to the frequency of occurrence of the same RNA from RNA-seq analysis of the starting RNA library to account for biases arising during transcription and RT-PCR. This pooled population comparison affords the parameter Zobs, a metric of statistical confidence. A large, positive Zobs indicates a strong preference for binding the motif while a negative Zobs indicates a strong preference against binding the motif. A Fitness Score is assigned by normalizing the Zobs values to the most statistically significant small molecule-RNA interaction to 100. […] Structure-Activity Relationships (SAR). Next, the most privileged RNA motif binders and the most discriminated against RNA motifs (non-binders) for each compound selection was analyzed by generating LOGOS from the highest and lowest 0.5% of Zobs scores^37. By comparing the LOGOS for related compounds, or DiffLogos, SAR can be defined. Indeed, various hit compounds differ by a single functional group, including compounds A and B (FIG. 5). […] In contrast, the RNA motifs most hindered from binding compounds 1 and 2 (discriminated against) are quite different (FIG. 5B).
Oligonucleotides. All DNA oligonucleotides were purchased from Integrated DNA Technologies, Inc. (IDT) and used without further purification. RNA oligonucleotide competitors were purchased from Dharmacon and de-protected according to the manufacturer's standard procedure. All oligonucleotide solutions were prepared with NANOpure water. The RNA motif libraries were synthesized by in vitro transcription from the corresponding DNA template that was custom-mixed at the randomized positions to ensure equivalent representation of all four nucleotides. Compounds. […]

Several values for one entry are separate records, joined by “and”; a condition that tells them apart may be missing. Identical values can stand only once.

As to `O=C(Nc1cccc(NC(=O)Nc2cc(C(=O)Nc3ccc(C4=NCCN4)cc3)ccc2C(=O)Nc2ccc(C3=NCCN3)cc2)c1)Nc1cc(C(=O)Nc2ccc(C3=NCCN3)cc2)ccc1C(=O)Nc1ccc(C2=NCCN2)cc1` [Compound 7], the dissociation constant Kd (usually the equilibrium constant for the complex coming apart) in test [1] came out at 820 ± 82 nM; in test [2] it was 470 ± 32 nM; in test [3], 460 ± 70 nM. Moreover, the “Fitness Score” value in test [4] (RNA motif 5′AAC3′/3′U_G5′) amounted to 33; in test [4] (RNA motif 5′GAG3′/3′C_C5′), 73; in test [4] (RNA motif 5′UGU3′/3′G_A5′), 47; in test [4] (RNA motif 5′UUA3′/3′A_U5′, Zobs normalized to most significant interaction = 100) it was 100. In addition, the Zobs in test [4] (RNA motif 5′AAC3′/3′U_G5′) was 8.2; in test [4] (RNA motif 5′GAG3′/3′C_C5′), 18.3; in test [4] (RNA motif 5′UCCAU3′/3′AUCA (non-binder)) it was −2.8; in test [4] (RNA motif 5′UCCUU3′/3′AUUA5′ (non-binder)) it was 1.1; in test [4] (RNA motif 5′UGU3′/3′G_A5′) it was 11.8; in test [4] (RNA motif 5′UUA3′/3′A_U5′), 25.2.

Consider `O=C(Nc1ccc(C2=NCCN2)cc1)c1cc(C(=O)Nc2ccc(C3=NCCN3)cc2)cc(C(=O)Nc2ccc(C3=NCCN3)cc2)c1` [Compound 8], for which the Kd in test [1] was 1400 ± 211 nM; in test [2], 1400 ± 160 nM; in test [3] it was 849 ± 150 nM. Further, the “Fitness Score” value in test [4] (RNA motif 5′GAU3′/3′C_A5′) is reported as 87; in test [4] (RNA motif 5′GCU3′/3′C_A5′), 79; in test [4] (RNA motif 5′UCUAU3′/3′ACCA5′) it was 45. Further, the Zobs is 11.8 in test [4] (RNA motif 5′GAU3′/3′C_A5′); 10.8 in test [4] (RNA motif 5′GCU3′/3′C_A5′); 6.1 in test [4] (RNA motif 5′UCUAU3′/3′ACCA5′); 13.6 and 9.5 in test [4] (RNA motif 5′UUA3′/3′A_U5′).
